Assay results taken from patent US20070218030A1, “Dietetic Preparation for Prevention and Treatment of Osteoporosis” (priority 2003, published 2007).

Test system: ovarectomised female rats
Experiment: experimental osteoporosis in ovarectomised female rats, oral administration
Assay type: in vivo
Settings: for symptoms of osteoporosis: female rats after surgically removed ovaries, administered orally, not yet published experimental results
Protocol: An experiment was carried out on ovarectomised female rats in which an experimental osteoporosis was induced.

[1] = ovarectomised female rats with induced experimental osteoporosis, oral, molecular weight over 500 000 g/mol, dosage 150 to 4500 μg/kg

Substance	symptoms of osteoporosis	bone density [1]	excretion of the metabolite of bone matrix breakdown into urine [1]
calcium hyaluronate	able to suppress symptoms of osteoporosis		
sodium hyaluronate	able to suppress symptoms of osteoporosis	normalisation of bone density	returned to normal
